Experimental data reported in US12569563B2, “Selective HDAC6 degraders and methods of use thereof” (DANA-FARBER CANCER INSTITUTE, INC., priority 2019, dated 2026).

What was measured:
[1] = test system: other identified HDAC proteins; assay: Multiplexed TMT mass spectrometry proteomics in Kelly cells, other HDAC abundance; format: cell-based, human; details: 1 μM, 2, 4, 8, and 16 hours
Experimental: (§1) Lysis buffer (8 M Urea, 50 mM NaCl, 50 mM 4-(2hydroxyethyl)-1-piperazineethanesulfonic acid (EPPS) pH 8.5, protease and phosphatase inhibitors from Roche®) were added to the cell pellets and homogenized by 20 passes through a 21 gauge (1.25 in. long) needle to achieve a cell lysate with a protein concentration between 1-4 mg mL^−1. A micro-BCA assay (Pierce™) was used to determine the final protein concentration in the cell lysate. 200 μg of protein for each sample were reduced and alkylated as described above.
Proteins were precipitated using methanol/chloroform. Four volumes of methanol were added to the cell lysate, followed by one volume of chloroform, and finally three volumes of water. The mixture was vortexed and centrifuged to separate the chloroform phase from the aqueous phase. […]
(§2) Anhydrous ACN was added to each peptide sample to a final concentration of 30% v/v, and labeling was induced with the addition of TMT reagent to each sample at a ratio of 1:4 peptide:TMT label. […] The sample channels were combined at a 1:1:1:1:1:1:1:1:1:1:1 ratio, desalted using Cis solid phase extraction cartridges (Waters) and analyzed by LC-MS for channel ratio comparison. Samples were then combined using the adjusted volumes determined in the channel ratio analysis and dried down in a speed vacuum. […]

HDAC6 = biological target: T1, HDAC6 (Homo sapiens, UniProt Q9UBN7); assay: Multiplexed TMT mass spectrometry proteomics in Kelly cells, HDAC6 abundance; format: cell-based; set-up: endogenous in cells; host or cells: Kelly cells
T1 sequence (Q9UBN7 1-1215): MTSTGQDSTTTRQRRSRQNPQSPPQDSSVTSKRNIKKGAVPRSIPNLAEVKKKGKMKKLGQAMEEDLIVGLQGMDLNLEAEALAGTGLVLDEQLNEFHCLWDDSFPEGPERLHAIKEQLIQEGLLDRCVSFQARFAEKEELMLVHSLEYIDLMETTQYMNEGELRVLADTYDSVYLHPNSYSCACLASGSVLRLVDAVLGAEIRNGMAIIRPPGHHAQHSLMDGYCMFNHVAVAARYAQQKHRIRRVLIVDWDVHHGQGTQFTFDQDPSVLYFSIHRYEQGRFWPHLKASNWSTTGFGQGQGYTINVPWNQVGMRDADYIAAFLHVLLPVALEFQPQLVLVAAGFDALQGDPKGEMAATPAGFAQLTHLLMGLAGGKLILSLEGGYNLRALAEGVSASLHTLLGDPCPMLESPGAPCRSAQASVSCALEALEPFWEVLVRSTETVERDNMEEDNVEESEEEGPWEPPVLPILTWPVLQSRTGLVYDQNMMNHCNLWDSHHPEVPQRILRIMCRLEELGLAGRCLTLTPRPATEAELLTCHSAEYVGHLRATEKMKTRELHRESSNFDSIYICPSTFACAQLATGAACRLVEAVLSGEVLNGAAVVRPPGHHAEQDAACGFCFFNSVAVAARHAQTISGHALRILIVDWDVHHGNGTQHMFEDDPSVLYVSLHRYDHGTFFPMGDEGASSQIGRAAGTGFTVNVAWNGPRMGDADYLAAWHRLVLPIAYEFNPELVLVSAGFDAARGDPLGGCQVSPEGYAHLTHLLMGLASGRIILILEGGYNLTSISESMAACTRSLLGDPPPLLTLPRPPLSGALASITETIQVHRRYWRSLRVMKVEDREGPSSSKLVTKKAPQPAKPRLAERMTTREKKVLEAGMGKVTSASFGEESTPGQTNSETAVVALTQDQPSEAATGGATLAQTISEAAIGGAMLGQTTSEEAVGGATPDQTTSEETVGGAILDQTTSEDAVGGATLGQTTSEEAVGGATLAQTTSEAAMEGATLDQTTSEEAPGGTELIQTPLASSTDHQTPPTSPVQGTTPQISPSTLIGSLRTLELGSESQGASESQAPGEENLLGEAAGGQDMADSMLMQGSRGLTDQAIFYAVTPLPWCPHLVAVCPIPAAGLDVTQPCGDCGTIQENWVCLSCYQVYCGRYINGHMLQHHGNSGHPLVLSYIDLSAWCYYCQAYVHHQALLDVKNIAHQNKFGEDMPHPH
Experimental: as §1
Proteins were precipitated using methanol/chloroform. Four volumes of methanol were added to the cell lysate, followed by one volume of chloroform, and finally three volumes of water. The mixture was vortexed and centrifuged to separate the chloroform phase from the aqueous phase. The precipitated protein was washed with three volumes of methanol, centrifuged and the resulting washed precipitated protein was allowed to air dry. The precipitated protein was resuspended in 4 M Urea, 50 mM HEPES pH 7.4, followed by dilution to 1 M urea with the addition of 200 mM EPPS, pH 8. Proteins were first digested with LysC (1:50; enzyme:protein) for 12 hours at room temperature. The LysC digestion was diluted to 0.5 M Urea with 200 mM EPPS pH 8 followed by digestion with trypsin (1:50; enzyme:protein) for 6 hours at 37° C. Tandem mass tag (TMT) reagents (Thermo Fisher Scientific™) were dissolved in anhydrous acetonitrile (ACN) according to manufacturer's instructions.
as §2

CN(C(=O)CCCNc1cccc2c1C(=O)N(C1CCC(=O)NC1=O)C2=O)c1ccc(NC(=O)CCCCCCC(=O)NO)cc1 (stereo not shown) [Compound 1, N^1-(4-(4-((2-(2,6-dioxopiperidin-3-yl)-1,3-dioxoisoindolin-4-yl)amino)-N-methylbutanamido)phenyl)-N^8-hydroxyoctanediamide]
change in cellular protein levels of other identified HDAC proteins (heat map FIG. 5) [1]: did not affect the cellular protein levels of the other identified HDAC proteins
change in cellular HDAC6 protein levels vs DMSO (heat map FIG. 5) (HDAC6; 1 μM, 2, 4, 8, and 16 hours): induced down regulation of cellular HDAC6 protein levels
change in HDAC6 protein levels vs DMSO, time course (FIG. 4) (HDAC6; 1 μM, after 2 hours): significant reduction in HDAC6 protein levels
course of HDAC6 protein levels, time course (FIG. 4) (HDAC6; 1 μM, over the course of 16 hours): continued to decrease
